Measurements reported in patent US20240210412A1, “SULFONYL-TRIAZOLE COMPOUNDS USEFUL AS LIGANDS AND INHIBITORS OF PROSTAGLANDIN REDUCTASE 2” (University of Virginia Patent Foundation, priority 2021, published 2024).

Columns and labels:
Test in all cases: SILAC LC-MS ABPP
Type in all cases: cell-based
Details in all cases: 25 μM 2 h, live DM93 cells
[1] = target: T1, Q96C86 (Homo sapiens, UniProt Q96C86)
T1 construct: endogenous in cells; host or cells: DM93 cells (SILAC), treated live; soluble proteome analysed
How it was run: (§1)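 Ligand engagement is measured as loss of HHS-475 probe labelling at specific tyrosines. SILAC DM93 melanoma cells were treated in situ (25 μM ligand vs DMSO, 2 h, 37 °C; then 100 μM probe, 2 h), and modified peptides were quantified by high-resolution LC-MS/MS after desthiobiotin tagging and avidin capture.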

[2] = target: T2, Q92900 (Homo sapiens, UniProt Q92900)
T2 construct: endogenous in cells; host or cells: DM93 cells (SILAC), live-cell treatment
How it was run: as §1

[3] = target: T3, P04040 (Homo sapiens, UniProt P04040)
T3 construct: endogenous in cells; host or cells: DM93 cells (SILAC)
How it was run: as §1

[4] = target: T4, Q15020 (Homo sapiens, UniProt Q15020)
T4 construct: performing SuTEx compound screening directly in cells; endogenous in cells; host or cells: DM93 cells (SILAC), soluble fraction
How it was run: as §1

[5] = target: T5, Q9HCH5 (Homo sapiens, UniProt Q9HCH5)
T5 construct: endogenous in cells; host or cells: DM93 cells (SILAC), treated live; soluble proteome analysed
How it was run: as §1

[6] = target: T6, Q969T9 (Homo sapiens, UniProt Q969T9)
T6 construct: endogenous in cells; host or cells: DM93 cells (SILAC), live-cell treatment
How it was run: as §1

[7] = target: T7, O43156 (Homo sapiens, UniProt O43156)
T7 construct: endogenous in cells; host or cells: DM93
How it was run: as §1

[8] = target: T8, P22059 (Homo sapiens, UniProt P22059)
T8 construct: endogenous in cells; host or cells: DM93 (SILAC)
How it was run: as §1

[9] = target: T9, P07814 (Homo sapiens, UniProt P07814)
T9 construct: endogenous in cells; host or cells: DM93 cells (SILAC)
How it was run: as §1

[10] = target: T10, Q9UPP1 (Homo sapiens, UniProt Q9UPP1)
T10 construct: endogenous in cells; host or cells: DM93 cells (SILAC)
How it was run: as §1

[11] = target: T11, Q9UI12 (Homo sapiens, UniProt Q9UI12)
T11 construct: endogenous in cells; host or cells: DM93 cells (SILAC)
How it was run: as §1

[12] = target: T12, Q14566 (Homo sapiens, UniProt Q14566)
T12 construct: performing SuTEx compound screening directly in cells; endogenous in cells; host or cells: DM93 cells (SILAC), soluble fraction
How it was run: as §1

[13] = target: T13, P30533 (Homo sapiens, UniProt P30533)
T13 construct: endogenous in cells; host or cells: DM93 (SILAC)
How it was run: as §1

[14] = target: T14, P17066 (Homo sapiens, UniProt P17066)
T14 construct: Probe-modified proteins from the soluble fraction were conjugated to a desthiobiotin-azide tag; endogenous in cells; host or cells: DM93 (SILAC)
How it was run: as §1

[15] = target: T15, Q7Z6M1 (Homo sapiens, UniProt Q7Z6M1)
T15 construct: endogenous in cells; host or cells: DM93 cells (SILAC), live-cell treatment
How it was run: as §1

[16] = target: T16, O75131 (Homo sapiens, UniProt O75131)
T16 construct: endogenous in cells; host or cells: DM93
How it was run: as §1

[17] = target: T17, P36507 (Homo sapiens, UniProt P36507)
T17 construct: endogenous in cells; host or cells: DM93 (SILAC)
How it was run: as §1

[18] = target: T18, P14550 (Homo sapiens, UniProt P14550)
T18 construct: endogenous in cells; host or cells: DM93 cells (SILAC)
How it was run: as §1

T2 sequence (Q92900 whole entry): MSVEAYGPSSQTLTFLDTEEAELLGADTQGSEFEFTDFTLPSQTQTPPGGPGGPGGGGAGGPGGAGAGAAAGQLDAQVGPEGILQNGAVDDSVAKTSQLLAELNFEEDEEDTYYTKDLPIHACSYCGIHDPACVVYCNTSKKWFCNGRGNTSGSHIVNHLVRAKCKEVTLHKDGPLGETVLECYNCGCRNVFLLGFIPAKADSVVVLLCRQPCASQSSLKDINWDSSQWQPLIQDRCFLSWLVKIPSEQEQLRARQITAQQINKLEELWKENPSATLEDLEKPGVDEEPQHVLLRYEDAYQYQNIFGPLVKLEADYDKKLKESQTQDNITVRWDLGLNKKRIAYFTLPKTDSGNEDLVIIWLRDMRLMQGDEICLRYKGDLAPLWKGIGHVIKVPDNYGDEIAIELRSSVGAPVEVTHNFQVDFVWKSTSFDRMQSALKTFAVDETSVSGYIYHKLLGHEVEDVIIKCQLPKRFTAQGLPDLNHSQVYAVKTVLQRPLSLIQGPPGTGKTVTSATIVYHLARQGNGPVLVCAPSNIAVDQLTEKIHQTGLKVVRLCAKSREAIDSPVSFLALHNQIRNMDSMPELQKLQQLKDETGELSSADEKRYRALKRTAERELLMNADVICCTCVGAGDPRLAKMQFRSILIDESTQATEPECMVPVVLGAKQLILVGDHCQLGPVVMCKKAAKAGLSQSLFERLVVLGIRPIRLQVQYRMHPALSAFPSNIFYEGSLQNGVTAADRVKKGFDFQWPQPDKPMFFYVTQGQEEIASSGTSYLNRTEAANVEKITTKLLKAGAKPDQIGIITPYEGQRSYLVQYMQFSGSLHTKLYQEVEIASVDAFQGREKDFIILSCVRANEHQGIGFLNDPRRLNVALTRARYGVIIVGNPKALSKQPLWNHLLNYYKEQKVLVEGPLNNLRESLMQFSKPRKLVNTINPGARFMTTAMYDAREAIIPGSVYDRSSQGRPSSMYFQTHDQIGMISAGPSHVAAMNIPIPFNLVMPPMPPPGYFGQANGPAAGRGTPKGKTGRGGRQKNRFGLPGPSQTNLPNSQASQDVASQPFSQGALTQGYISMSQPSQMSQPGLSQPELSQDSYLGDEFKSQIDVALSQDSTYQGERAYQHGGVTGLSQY
T4 sequence (Q15020 whole entry): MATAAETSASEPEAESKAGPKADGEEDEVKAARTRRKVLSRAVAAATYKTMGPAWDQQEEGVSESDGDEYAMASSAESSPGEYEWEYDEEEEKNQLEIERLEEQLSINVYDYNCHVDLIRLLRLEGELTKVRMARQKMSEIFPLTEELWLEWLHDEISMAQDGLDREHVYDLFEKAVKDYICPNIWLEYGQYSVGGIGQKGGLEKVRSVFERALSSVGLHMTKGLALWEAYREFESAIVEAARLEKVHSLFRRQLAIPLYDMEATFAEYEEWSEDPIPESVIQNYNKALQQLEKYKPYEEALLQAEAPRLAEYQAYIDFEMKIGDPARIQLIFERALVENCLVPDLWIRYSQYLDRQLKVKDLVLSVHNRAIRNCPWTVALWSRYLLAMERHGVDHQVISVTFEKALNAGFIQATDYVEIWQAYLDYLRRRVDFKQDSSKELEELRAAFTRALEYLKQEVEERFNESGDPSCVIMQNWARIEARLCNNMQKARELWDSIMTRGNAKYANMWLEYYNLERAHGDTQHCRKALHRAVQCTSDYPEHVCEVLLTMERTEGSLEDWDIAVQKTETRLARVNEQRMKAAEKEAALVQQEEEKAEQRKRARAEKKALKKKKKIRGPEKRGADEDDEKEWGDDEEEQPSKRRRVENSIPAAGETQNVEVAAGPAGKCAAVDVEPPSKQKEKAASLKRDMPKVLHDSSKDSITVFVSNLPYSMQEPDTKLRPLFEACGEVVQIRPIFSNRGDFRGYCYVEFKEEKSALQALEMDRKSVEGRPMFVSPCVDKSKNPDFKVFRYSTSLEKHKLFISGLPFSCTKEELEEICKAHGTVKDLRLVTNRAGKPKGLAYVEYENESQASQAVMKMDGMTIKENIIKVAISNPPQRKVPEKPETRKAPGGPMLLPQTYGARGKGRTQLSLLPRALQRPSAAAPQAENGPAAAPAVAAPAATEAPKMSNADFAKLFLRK
T9 sequence (P07814 whole entry): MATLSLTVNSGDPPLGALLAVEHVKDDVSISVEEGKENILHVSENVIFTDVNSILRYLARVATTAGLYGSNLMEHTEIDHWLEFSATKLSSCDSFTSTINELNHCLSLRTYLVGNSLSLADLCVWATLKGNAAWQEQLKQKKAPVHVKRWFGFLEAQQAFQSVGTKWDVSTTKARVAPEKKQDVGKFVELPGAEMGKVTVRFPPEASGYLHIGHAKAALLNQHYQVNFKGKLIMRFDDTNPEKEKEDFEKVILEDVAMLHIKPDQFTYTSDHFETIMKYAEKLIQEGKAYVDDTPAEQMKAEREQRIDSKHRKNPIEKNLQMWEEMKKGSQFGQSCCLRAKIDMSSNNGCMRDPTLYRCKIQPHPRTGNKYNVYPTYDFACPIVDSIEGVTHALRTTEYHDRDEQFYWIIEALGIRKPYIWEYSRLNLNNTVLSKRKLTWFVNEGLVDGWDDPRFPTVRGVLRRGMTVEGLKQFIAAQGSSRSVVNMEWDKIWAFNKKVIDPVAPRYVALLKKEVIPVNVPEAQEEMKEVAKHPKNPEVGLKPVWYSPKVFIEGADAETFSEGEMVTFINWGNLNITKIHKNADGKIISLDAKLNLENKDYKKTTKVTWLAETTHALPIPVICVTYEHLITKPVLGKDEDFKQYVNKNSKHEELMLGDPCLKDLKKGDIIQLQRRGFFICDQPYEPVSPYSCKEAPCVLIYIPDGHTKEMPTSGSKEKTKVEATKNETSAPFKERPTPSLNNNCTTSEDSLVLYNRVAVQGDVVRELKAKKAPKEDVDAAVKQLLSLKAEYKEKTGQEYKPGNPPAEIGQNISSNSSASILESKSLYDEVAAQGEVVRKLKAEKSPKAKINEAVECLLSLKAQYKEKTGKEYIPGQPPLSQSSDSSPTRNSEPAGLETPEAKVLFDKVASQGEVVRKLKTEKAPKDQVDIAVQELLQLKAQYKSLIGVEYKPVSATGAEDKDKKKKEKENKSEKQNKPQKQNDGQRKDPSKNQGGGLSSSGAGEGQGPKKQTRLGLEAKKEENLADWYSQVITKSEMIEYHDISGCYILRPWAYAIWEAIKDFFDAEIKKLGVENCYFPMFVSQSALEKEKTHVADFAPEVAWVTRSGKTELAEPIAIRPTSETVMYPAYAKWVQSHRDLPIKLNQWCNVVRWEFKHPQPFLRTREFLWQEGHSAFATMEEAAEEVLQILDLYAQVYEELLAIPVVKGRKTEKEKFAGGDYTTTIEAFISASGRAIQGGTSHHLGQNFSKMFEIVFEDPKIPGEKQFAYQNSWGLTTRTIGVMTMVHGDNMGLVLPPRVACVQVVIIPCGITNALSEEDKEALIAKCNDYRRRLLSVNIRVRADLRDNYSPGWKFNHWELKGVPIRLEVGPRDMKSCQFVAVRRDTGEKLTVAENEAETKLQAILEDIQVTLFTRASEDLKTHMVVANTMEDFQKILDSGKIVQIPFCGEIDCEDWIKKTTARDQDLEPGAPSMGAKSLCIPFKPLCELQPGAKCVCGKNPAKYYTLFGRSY
T7 sequence (O43156 whole entry): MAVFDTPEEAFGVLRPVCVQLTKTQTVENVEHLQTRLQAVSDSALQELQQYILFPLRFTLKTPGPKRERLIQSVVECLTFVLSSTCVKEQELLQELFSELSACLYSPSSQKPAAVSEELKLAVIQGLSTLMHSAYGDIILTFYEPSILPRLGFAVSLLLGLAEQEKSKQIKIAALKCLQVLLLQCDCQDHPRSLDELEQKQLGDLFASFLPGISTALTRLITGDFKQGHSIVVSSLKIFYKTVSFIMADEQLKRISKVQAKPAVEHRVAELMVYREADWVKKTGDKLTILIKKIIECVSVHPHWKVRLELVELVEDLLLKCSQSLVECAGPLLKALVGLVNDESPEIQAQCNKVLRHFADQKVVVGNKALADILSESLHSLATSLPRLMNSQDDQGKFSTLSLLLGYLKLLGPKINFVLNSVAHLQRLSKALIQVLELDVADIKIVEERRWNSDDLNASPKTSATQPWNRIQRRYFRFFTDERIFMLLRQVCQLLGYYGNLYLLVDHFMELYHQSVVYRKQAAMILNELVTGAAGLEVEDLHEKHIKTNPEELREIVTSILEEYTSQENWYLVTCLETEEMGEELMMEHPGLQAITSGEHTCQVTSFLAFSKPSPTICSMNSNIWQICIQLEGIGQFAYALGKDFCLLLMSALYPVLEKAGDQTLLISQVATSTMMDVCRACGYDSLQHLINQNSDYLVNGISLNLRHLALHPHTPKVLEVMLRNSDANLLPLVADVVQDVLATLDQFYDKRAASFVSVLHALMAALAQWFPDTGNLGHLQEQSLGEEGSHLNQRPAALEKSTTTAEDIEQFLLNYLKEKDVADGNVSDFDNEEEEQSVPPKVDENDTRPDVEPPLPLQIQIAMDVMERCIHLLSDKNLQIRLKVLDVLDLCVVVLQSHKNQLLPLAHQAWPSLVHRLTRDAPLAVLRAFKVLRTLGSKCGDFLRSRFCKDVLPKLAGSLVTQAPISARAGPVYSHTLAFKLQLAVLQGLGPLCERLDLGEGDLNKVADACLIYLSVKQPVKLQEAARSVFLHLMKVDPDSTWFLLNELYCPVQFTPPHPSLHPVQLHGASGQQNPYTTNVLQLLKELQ
T13 sequence (P30533 35-357): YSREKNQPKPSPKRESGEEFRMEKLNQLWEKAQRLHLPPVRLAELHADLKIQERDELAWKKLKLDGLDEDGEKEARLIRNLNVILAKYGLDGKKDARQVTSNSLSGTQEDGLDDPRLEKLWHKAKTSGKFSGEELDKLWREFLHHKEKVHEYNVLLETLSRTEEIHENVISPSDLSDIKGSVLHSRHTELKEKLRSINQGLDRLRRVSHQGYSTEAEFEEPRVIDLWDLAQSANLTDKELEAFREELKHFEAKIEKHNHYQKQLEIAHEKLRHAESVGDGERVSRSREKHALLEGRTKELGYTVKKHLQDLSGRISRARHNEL

Question: Which results are given for `O=C(NC1CC1)c1ccc(S(=O)(=O)n2cncn2)cc1` [HHS-0101, 4-((1H-1,2,4-triazol-1-yl)sulfonyl)-N-cyclopropylbenzamide]?
Answer: liganded tyrosine site 116 [1]: HHS0101.Y|HHS0401.Y (tyrosine sites that showed >80% reductions (SR >5) in probe labeling in cells treated with compounds (liganded sites)); liganded tyrosine site 518 [2]: HHS0101.Y|HHS0201.Y|HHS0401.Y|HHS0701.Y (tyrosine sites that showed >80% reductions (SR >5) in probe labeling in cells treated with compounds (liganded sites)); liganded tyrosine site 946 [2]: HHS0101.Y (tyrosine sites that showed >80% reductions (SR >5) in probe labeling in cells treated with compounds (liganded sites)); liganded tyrosine site 358 [3]: HHS0101.Y|HHS0201.Y|HHS0301.Y|HHS0701.Y (tyrosine sites that showed >80% reductions (SR >5) in probe labeling in cells treated with compounds (liganded sites)); liganded tyrosine site 541 [4]: HHS0101.Y|HHS0201.Y|HHS0301.Y|HHS0401.Y|HHS0701.Y (tyrosine sites that showed >80% reductions (SR >5) in probe labeling in cells treated with compounds (liganded sites)); liganded tyrosine site 289 [5]: HHS0101.Y|HHS0201.Y|HHS0301.Y|HHS0401.Y|HHS0701.Y (tyrosine sites that showed >80% reductions (SR >5) in probe labeling in cells treated with compounds (liganded sites)); liganded tyrosine site 232 [6]: HHS0101.Y|HHS0701.Y (tyrosine sites that showed >80% reductions (SR >5) in probe labeling in cells treated with compounds (liganded sites)); liganded tyrosine site 51 [7]: HHS0101.Y|HHS0401.Y|HHS0701.Y (tyrosine sites that showed >80% reductions (SR >5) in probe labeling in cells treated with compounds (liganded sites))

Question: For `O=C(NCC1CC1)c1ccc(S(=O)(=O)n2cncn2)cc1` [HHS-0201, 4-((1H-1,2,4-triazol-1-yl)sulfonyl)-N-(cyclopropylmethyl)benzamide], which “liganded tyrosine site 764” value [8] is on record?
Answer: HHS0201.Y|HHS0701.Y (tyrosine sites that showed >80% reductions (SR >5) in probe labeling in cells treated with compounds (liganded sites))

Question: What about the “liganded tyrosine site 864” value [9] of the same compound?
Answer: HHS0201.Y (tyrosine sites that showed >80% reductions (SR >5) in probe labeling in cells treated with compounds (liganded sites))

Question: What about the “liganded tyrosine site 383” value [10] of the same compound?
Answer: HHS0201.Y (tyrosine sites that showed >80% reductions (SR >5) in probe labeling in cells treated with compounds (liganded sites))

Question: What about the “liganded tyrosine site 163” value [11] of the same compound?
Answer: HHS0201.Y|HHS0301.Y (tyrosine sites that showed >80% reductions (SR >5) in probe labeling in cells treated with compounds (liganded sites))

Question: What about the “liganded tyrosine site 783” value [12] of the same compound?
Answer: HHS0201.Y (tyrosine sites that showed >80% reductions (SR >5) in probe labeling in cells treated with compounds (liganded sites))

Question: Which “liganded tyrosine site 336” value [13] does the source give for `O=C(NC1CCCCC1)c1ccc(S(=O)(=O)n2cncn2)cc1` [HHS-0301, 4-((1H-1,2,4-triazol-1-yl)sulfonyl)-N-cyclohexylbenzamide] here?
Answer: HHS0301.Y|HHS0701.Y (tyrosine sites that showed >80% reductions (SR >5) in probe labeling in cells treated with compounds (liganded sites))

Question: And the “liganded tyrosine site 373” value [14]?
Answer: HHS0301.Y (tyrosine sites that showed >80% reductions (SR >5) in probe labeling in cells treated with compounds (liganded sites))

Question: `O=C(NCc1ccccc1)c1ccc(S(=O)(=O)n2cncn2)cc1` [HHS-0401, 4-((1H-1,2,4-triazol-1-yl)sulfonyl)-N-benzylbenzamide] was tested. Which “liganded tyrosine site 87” value [15] did it give?
Answer: HHS0401.Y|HHS0701.Y (tyrosine sites that showed >80% reductions (SR >5) in probe labeling in cells treated with compounds (liganded sites))

Question: And the “liganded tyrosine site 203” value [16]?
Answer: HHS0401.Y (tyrosine sites that showed >80% reductions (SR >5) in probe labeling in cells treated with compounds (liganded sites))

Question: And the “liganded tyrosine site 244” value [17]?
Answer: HHS0401.Y (tyrosine sites that showed >80% reductions (SR >5) in probe labeling in cells treated with compounds (liganded sites))

Question: What about the “liganded tyrosine site 135” value [18] of the same compound?
Answer: HHS0401.Y (tyrosine sites that showed >80% reductions (SR >5) in probe labeling in cells treated with compounds (liganded sites))
